Data from PubChem BioAssay (NCI).
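These data come from cells grown in 96-well plates and exposed to compound for 48 hours at five concentrations. GI50 = concentration required for 50% inhibition of growth. TGI denotes the concentration required for complete inhibition of growth.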

How the values were obtained:
Assay in all cases: inhibition of tumour cell growth, NCI panel, 48 h
RPMI-8226 leukemia = test system: RPMI-8226 leukemia
A549 NSCLC = test system: A549 NSCLC
HS 578T breast = test system: HS 578T breast
NCI-H23 lung = test system: NCI-H23 lung
NCI-H460 lung = test system: NCI-H460 lung
SF-268 CNS = test system: SF-268 CNS
OVCAR-8 ovarian = test system: OVCAR-8 ovarian
NCI-H226 lung = test system: NCI-H226 lung
MALME-3M melanoma = test system: MALME-3M melanoma
CCRF-CEM leukemia = test system: CCRF-CEM leukemia

SMILES | GI50 (RPMI-8226 leukemia) | TGI (RPMI-8226 leukemia) | GI50 (A549 NSCLC) | TGI (A549 NSCLC) | GI50 (HS 578T breast) | TGI (HS 578T breast) | GI50 (NCI-H23 lung) | TGI (NCI-H23 lung) | GI50 (NCI-H460 lung) | TGI (NCI-H460 lung) | GI50 (SF-268 CNS) | TGI (SF-268 CNS) | GI50 (OVCAR-8 ovarian) | TGI (OVCAR-8 ovarian) | TGI (NCI-H226 lung) | TGI (MALME-3M melanoma) | TGI (CCRF-CEM leukemia) | GI50 (CCRF-CEM leukemia) | GI50 (MALME-3M melanoma) | GI50 (NCI-H226 lung)
Fc1ccc(Nc2nc3ccccc3c3occc23)cc1 | 3.56 µM | 15 µM | 8.99 µM | 23.2 µM | 14.3 µM | 33.1 µM | 1480 nM | 4.86 µM | 4.61 µM | 19 µM | 7.54 µM | 24.1 µM | 11.2 µM | 31.5 µM |  |  |  |  |  | 
C/C(=N\NC(=O)CC(=O)N(C(=O)c1ccc(Cl)cc1)c1ccc(C)cc1)c1ccccc1O |  | > 100 µM |  | > 100 µM |  |  |  | > 100 µM |  | > 100 µM |  | > 100 µM |  | > 100 µM | > 100 µM | > 100 µM | > 100 µM |  |  | 
O=C1C2C3C=CC(C2C(=O)N1CN1CCSCC1)C1C2C(=O)N(CN4CCSCC4)C(=O)C2C31 (stereo not drawn) | 32.2 µM | 61.7 µM | 77.1 µM | > 100 µM |  |  |  | > 100 µM | 40 µM | > 57.3 µM |  | > 91.6 µM |  | > 100 µM | > 100 µM | > 100 µM | > 100 µM | 35100 nM |  | 
Cc1ccc(S(=O)(=O)Nc2ccc(-c3cc(-c4cccc(F)c4)c(C#N)c(N)n3)cc2)cc1 | 2.21 µM | 8.92 µM | 3.11 µM | 15.7 µM | 2.28 µM | 7.48 µM | 2480 nM | 7.96 µM | 3.53 µM | 12.6 µM | 2.97 µM | 12.8 µM | 2.43 µM | 7.83 µM |  | 3.25 µM | 30.8 µM | 2260 nM | 1610 nM | 
CCCCCC[C@H](C)NC(=O)c1ccc(Nc2nc3ccccc3c3occc23)cc1 | 4.03 µM | > 100 µM | 4.35 µM | > 100 µM | 4.68 µM | 67.6 µM | 2410 nM | 6.08 µM | 3.81 µM | > 100 µM | 6.39 µM | > 100 µM | 2.92 µM | 8 µM |  |  | > 100 µM | 3680 nM |  | 
O=c1cc(-c2ccccc2)[nH]c2cc(Cl)ccc12 |  | 10.5 µM |  | > 100 µM |  |  |  | 4.35 µM |  | 14.8 µM |  | > 100 µM |  | 33.1 µM | 56 µM | > 100 µM | 11.4 µM |  |  | 
COc1ccc(/C=C2\c3cc(OC)c(OC)c(OC)c3CC[C@@H]2O)cc1F | 1.82 µM | > 100 µM | 0.693 µM | > 100 µM | 0.299 µM | > 100 µM | 318 nM | > 100 µM | 0.299 µM | 16.9 µM | 0.748 µM | > 100 µM | 0.598 µM | 93.4 µM |  | > 100 µM | > 100 µM | 815 nM | 261 nM | 
CCN=C(C#N)NCC |  | > 100 µM |  | > 100 µM |  |  |  | > 100 µM |  | > 100 µM |  | > 100 µM |  | > 100 µM | > 100 µM | > 100 µM | > 100 µM |  |  | 
CCc1cccc(C)c1NC(=S)NC(=O)c1ccccc1C(=O)NC(=S)Nc1c(C)cccc1CC |  | > 100 µM |  | > 100 µM |  |  |  | > 100 µM |  | > 100 µM |  | > 100 µM |  | > 100 µM | > 100 µM | > 100 µM | > 100 µM |  |  | 
COc1cnc2c(c1)C(=O)c1c-2n(CCCN2CCNCC2)c(=O)c2cc([N+](=O)[O-])ccc12 | 0.301 µM | 2.28 µM | 0.0699 µM | 1.5 µM | 1.82 µM | 4.6 µM |  |  |  |  |  |  | 0.314 µM | 2.29 µM |  | 2.24 µM | 1.78 µM | 143 nM | 655 nM | 
COCCn1cc(-c2csc(-c3c[nH]c4ccc(Br)cc34)n2)c2cccnc21 | 5.14 µM | > 100 µM | 6.89 µM | > 100 µM | 4.44 µM | 43 µM | 3210 nM | > 100 µM | 3.07 µM | > 100 µM |  |  | 5.35 µM | > 100 µM |  | 57.6 µM |  |  | 3660 nM | 
Cc1ccccc1C1CC(c2ccccc2)=NO1 (stereo not drawn) |  | > 100 µM |  | > 100 µM |  |  |  | > 100 µM |  | > 100 µM |  | > 100 µM |  | > 100 µM | > 100 µM | > 100 µM | > 100 µM |  |  | 
C=CCN(N=O)C(=O)NCCCCC(NC(C)=O)C(=O)NCc1ccccc1 (stereo not drawn) |  | > 100 µM |  | > 100 µM |  |  |  | > 100 µM |  | > 100 µM |  | > 100 µM |  | > 100 µM | > 100 µM | > 100 µM | > 100 µM |  |  | 
COc1ccc(CCc2cc(OC)c(O)c(OC)c2)cc1 |  | > 100 µM |  | > 100 µM |  |  |  | > 100 µM |  | > 100 µM |  | > 100 µM |  | > 100 µM | > 100 µM | > 100 µM | > 100 µM |  |  | 
O=c1c(Cl)cc2nc3ccccc3sc-2c1Cl |  | 25.9 µM |  | 40.9 µM |  | > 100 µM |  | 28 µM |  | 35.1 µM |  | 28.5 µM |  |  | 32.3 µM | 23.6 µM | 43.3 µM |  |  | 
COc1ccc(OC)c(/C=C/c2nc(SCc3ccccc3)n(-c3ccc(Cl)cc3)n2)c1 | 7.39 µM | > 100 µM | 6.79 µM | > 100 µM | 5.23 µM | > 100 µM | 6850 nM | > 100 µM | 4.17 µM | > 100 µM | 8.39 µM | > 100 µM | 9.36 µM | > 100 µM | > 100 µM |  | > 100 µM | 4110 nM |  | 27.8 µM
c1ccc2c(NCCCCCCNc3cccc4ccccc34)cccc2c1 |  | > 100 µM |  | > 100 µM |  |  |  | > 100 µM |  | > 100 µM |  | > 100 µM |  | > 100 µM | > 100 µM | > 100 µM | > 100 µM |  |  | 
COc1cc(/C=C2\C[C@H]3[C@@H]4CC=C5C[C@@H](OC(C)=O)CC[C@]5(C)[C@H]4CC[C@]3(C)[C@H]2OC(C)=O)ccc1OCCN1CCCC1 | 1.07 µM | 13.4 µM | 10.9 µM | 21.6 µM | 9.32 µM | 18.8 µM | 10100 nM | 19 µM | 10.2 µM | 23.1 µM | 8.94 µM | 18.8 µM | 10.3 µM | 21.4 µM | 18.6 µM |  | 18.8 µM | 935 nM |  | 9.67 µM
CSc1ccc(C(=O)/C=C/c2ccccc2Cl)cc1 | 7.11 µM | 37.7 µM | 15.1 µM | 30.5 µM | 21.9 µM | 55.6 µM | 15400 nM | 32.5 µM | 25.2 µM | 70 µM | 22.4 µM | 53.3 µM | 15.8 µM | 32.5 µM | 37.6 µM |  | > 100 µM | 19600 nM |  | 15.8 µM
Cn1cnc([N+](=O)[O-])c1Sc1nccc(=O)[nH]1 |  | > 100 µM |  | > 100 µM |  |  |  | > 100 µM |  | > 100 µM |  | > 100 µM |  | > 100 µM | > 100 µM | > 100 µM | > 100 µM |  |  | 
CC1=C([Se]CC(OC(=O)[C@@H](CO)NC(=O)OC(C)(C)C)C(=O)NCCCCCC(=O)OCc2ccccc2)C(=O)c2ccccc2C1=O (stereo partly drawn) | 2.18 µM | 5.83 µM | 1.37 µM | 3.07 µM | 1.99 µM | 4.64 µM |  |  | 0.462 µM | 1.61 µM | 1.85 µM | 3.27 µM | 1.84 µM | 3.36 µM | 4.41 µM | 3.82 µM |  |  | 2070 nM | 2.25 µM
CCC[CH2][Pb]([Cl])([CH2]CCC)[CH2]CCC | 0.0157 µM | 0.0531 µM | 0.0264 µM | 0.0936 µM | 0.0317 µM | 0.0913 µM | 29.8 nM | 0.116 µM | 0.0177 µM | 0.0417 µM | 0.0192 µM | 0.0677 µM | 0.0206 µM | 0.0464 µM |  | 0.0261 µM | 1.15 µM | 55.3 nM | 4.28 nM | 
Cc1ccc2nc(NC(=O)/C(=N\NC(=S)NN)C3C(=O)NC(=S)NC3=O)sc2c1 |  | > 100 µM |  | > 100 µM |  |  |  | > 100 µM |  | > 100 µM |  | > 100 µM |  | > 100 µM | > 100 µM | > 100 µM | > 100 µM |  |  | 
CCOC(=O)C(C(O)c1ccc([N+](=O)[O-])cc1)P(=O)(OCC)OCC (stereo not drawn) |  | > 100 µM |  | > 100 µM |  |  |  | > 100 µM |  | > 100 µM |  | > 100 µM |  | > 100 µM | > 100 µM | > 100 µM | > 100 µM |  |  | 
Cc1cc(Cl)ccc1NC(=O)C(=O)C(C(=O)c1ccccc1)C1OC(=O)c2ccccc21 (stereo not drawn) |  | > 100 µM |  | > 100 µM |  |  |  | > 100 µM |  | > 100 µM |  | > 100 µM |  | > 100 µM | > 100 µM | > 100 µM | > 100 µM |  |  | 
CCCCCCCC(=O)[O][Hg][CH2]C1COC([CH2][Hg][O]C(=O)CCCCCCC)CO1 (stereo not drawn) | 3.84 µM | > 100 µM | 20.3 µM | 47.2 µM | 16.8 µM | 46.3 µM | 14200 nM | 28.6 µM | 18.2 µM | 37.4 µM | 18.2 µM | 36.9 µM | 19.8 µM | 40.1 µM |  | 11.6 µM | > 100 µM | 1910 nM | 3240 nM | 
